The subject of this assay is BDF1 mice, B16 melanoma s.c., survival/tumor T/C. Kind of assay: NCI In Vivo Anticancer Drug Screen. Data for tumor model B16 Melanoma (subcutaneous) in B6D2F1 (BDF1) mice. The protocol:
The antitumor activity of compounds was measured in mice bearing transplantable tumors. Survival or tumor size were measured and the results are expressed as the measurement made in the treated group (T) divided by the measurement made in the vehicle treated control group (C). The tumor model used in this assay is B16 Melanoma (subcutaneous) in B6D2F1 (BDF1) mice

[1] abbreviates: endpoint: median survival time, dose: 4.0 mg/kg/injection, schedule: Q01DX009 (ip), vehicle: saline, higher = longer survival.
Where [2] appears, read: endpoint: median survival time, dose: 40.0 mg/kg/injection, schedule: Q01DX009 (ip), vehicle: saline, higher = longer survival.
[3] abbreviates: endpoint: median survival time, dose: 50.0 mg/kg/injection, schedule: Q01DX009 (ip), vehicle: Klucel (hydroxypropylcellulose) (HPC), higher = longer survival.
The mark [4] stands for this setting: endpoint: median survival time, dose: 100.0 mg/kg/injection, schedule: Q01DX009 (ip), vehicle: Klucel (hydroxypropylcellulose) (HPC), higher = longer survival.

The values that follow come from PubChem BioAssay AID194 (DTP/NCI, 2004).

Where “and” joins values, the source holds several entries; their conditions need not be identical. Equal values may be shown once. Inconclusive results are not listed.

Take `OCCN1CCN(CC/C=C2/c3ccccc3Sc3ccc(C(F)(F)F)cc32)CC1`: the T/C (endpoint: median survival time, dose: 1.8 micrograms/kg/injection, schedule: Q01DX009 (ip), vehicle: saline, higher = longer survival) was 93 % of control; the T/C (endpoint: median survival time, dose: 3.7 micrograms/kg/injection, schedule: Q01DX009 (ip), vehicle: saline, higher = longer survival) is 95 % of control; the T/C (endpoint: median survival time, dose: 7.5 micrograms/kg/injection, schedule: Q01DX009 (ip), vehicle: saline, higher = longer survival) was 109 % of control; the T/C (endpoint: median survival time, dose: 15.0 micrograms/kg/injection, schedule: Q01DX009 (ip), vehicle: saline, higher = longer survival) is 103 % of control; the T/C (endpoint: median survival time, dose: 30.0 micrograms/kg/injection, schedule: Q01DX009 (ip), vehicle: saline, higher = longer survival) was 91 % of control.
As for `O=NN(CCCl)C(=O)NCCCl`, the T/C reads like this: (endpoint: median survival time, dose: 0.5 mg/kg/injection, schedule: Q01DX009 (ip), vehicle: saline, higher = longer survival) 100 % of control; (endpoint: median survival time, dose: 1.0 mg/kg/injection, schedule: Q01DX009 (ip), vehicle: saline, higher = longer survival) 106 % of control; (endpoint: median survival time, dose: 1.5 mg/kg/injection, schedule: Q02DX009 (ip), vehicle: saline + alcohol, higher = longer survival) 151 % of control; (endpoint: median survival time, dose: 2.0 mg/kg/injection, schedule: Q01DX009 (ip), vehicle: saline, higher = longer survival) 117 % of control; (endpoint: median survival time, dose: 3.11 mg/kg/injection, schedule: Q01DX007 (ip), vehicle: Klucel (hydroxypropylcellulose) (HPC), higher = longer survival) 117 % of control; under setting [1], 184 % of control. In addition, the T/C is 167 % of control (endpoint: median survival time, dose: 8.0 mg/kg/injection, schedule: Q01DX009 (ip), vehicle: saline, higher = longer survival) and 121 % of control (endpoint: median survival time, dose: 14.4 mg/kg/injection, schedule: Q01DX007 (ip), vehicle: Klucel (hydroxypropylcellulose) (HPC), higher = longer survival).
As to `COC12C(COC(N)=O)C3=C(C(=O)C(C)=C(N)C3=O)N1CC1C2N1C` (stereo not given), the T/C (endpoint: median survival time, dose: 1.0 mg/kg/injection, schedule: Q01DX009 (ip), vehicle: Klucel (hydroxypropylcellulose) (HPC), higher = longer survival) is 106 % of control; the T/C (endpoint: median survival time, dose: 2.0 mg/kg/injection, schedule: Q01DX009 (ip), vehicle: Klucel (hydroxypropylcellulose) (HPC), higher = longer survival) was 91 % of control; the T/C (endpoint: median survival time, dose: 8.0 mg/kg/injection, schedule: Q01DX009 (ip), vehicle: Klucel (hydroxypropylcellulose) (HPC), higher = longer survival) was 109 % of control.
On to `CCOC(=O)c1csc(-c2csc(CCNC(=O)c3ccccc3)n2)n1`, for which the T/C reads like this: (endpoint: median survival time, dose: 6.25 mg/kg/injection, schedule: Q01DX009 (ip), vehicle: saline with Tween-80, higher = longer survival) 95 % of control; (endpoint: median survival time, dose: 12.5 mg/kg/injection, schedule: Q01DX009 (ip), vehicle: saline with Tween-80, higher = longer survival) 102 % of control; (endpoint: median survival time, dose: 25.0 mg/kg/injection, schedule: Q01DX009 (ip), vehicle: saline with Tween-80, higher = longer survival) 87 % of control; (endpoint: median survival time, dose: 50.0 mg/kg/injection, schedule: Q01DX009 (ip), vehicle: saline with Tween-80, higher = longer survival) 91 % of control; (endpoint: median survival time, dose: 100.0 mg/kg/injection, schedule: Q01DX009 (ip), vehicle: saline with Tween-80, higher = longer survival) 106 % of control.
As to `CC(c1ccccc1)N1C(=O)CSC1=S` (stereo not given), the T/C (endpoint: median survival time, dose: 400.0 mg/kg/injection, schedule: Q01DX009 (ip), vehicle: Klucel (hydroxypropylcellulose) (HPC), higher = longer survival) is 89 % of control.
Take `CCC1=C(C[C@H]2NCCc3cc(OC)c(OC)cc32)C[C@H]2c3cc(OC)c(OC)cc3CCN2C1`: the T/C is, setting by setting: (endpoint: median survival time, dose: 2.0 mg/kg/injection, schedule: Q01DX005 (ip), vehicle: saline, higher = longer survival) 87 % of control; (endpoint: median survival time, dose: 4.0 mg/kg/injection, schedule: Q01DX005 (ip), vehicle: saline, higher = longer survival) 93 % of control; (endpoint: median survival time, dose: 8.0 mg/kg/injection, schedule: Q01DX005 (ip), vehicle: saline, higher = longer survival) 110 % of control; (endpoint: median survival time, dose: 16.0 mg/kg/injection, schedule: Q01DX005 (ip), vehicle: saline, higher = longer survival) 114 % of control.
Turning to `COc1cccc2c1C(=O)c1c(O)c3c(c(O)c1C2=O)C[C@@](O)(C(C)=O)C[C@@H]3OC1CC(N)C(O)C(C)O1` (stereo not given in full), the T/C reads like this: (endpoint: median survival time, dose: 0.12 mg/kg/injection, schedule: Q01DX009 (ip), vehicle: saline, higher = longer survival) 87 % of control and 105 % of control; (endpoint: median tumor weight (est.), dose: 0.12 mg/kg/injection, schedule: Q01DX009 (ip), vehicle: saline, higher = larger tumour) 64 % of control; (endpoint: median tumor weight (est.), dose: 0.25 mg/kg/injection, schedule: Q01DX009 (ip), vehicle: saline, higher = larger tumour) 86 % of control and 100 % of control; (endpoint: median tumor weight (est.), dose: 0.5 mg/kg/injection, schedule: Q01DX009 (ip), vehicle: saline, higher = larger tumour) 55 % of control.
As for `O=c1[nH]c(=O)n(C2CC(O)C(CO)O2)cc1C(F)(F)F` (stereo not given), the T/C was 103 % of control (endpoint: median survival time, dose: 10.0 mg/kg/injection, schedule: Q01DX009 (ip), vehicle: saline, higher = longer survival); 104 % of control and 111 % of control (endpoint: median survival time, dose: 20.0 mg/kg/injection, schedule: Q01DX009 (ip), vehicle: saline, higher = longer survival); 106 % of control under setting [2]; 89 % of control (endpoint: median survival time, dose: 80.0 mg/kg/injection, schedule: Q01DX009 (ip), vehicle: saline, higher = longer survival); 111 % of control (endpoint: median survival time, dose: 160.0 mg/kg/injection, schedule: Q01DX009 (ip), vehicle: saline, higher = longer survival).
As to `Nc1ccc(N(CCCl)CCN(CCCl)c2ccc(N)cc2)cc1`, the T/C (endpoint: median survival time, dose: 0.36 mg/kg/injection, schedule: Q01DX009 (ip), vehicle: saline, higher = longer survival) is 124 % of control; the T/C (endpoint: median survival time, dose: 0.75 mg/kg/injection, schedule: Q01DX009 (ip), vehicle: saline, higher = longer survival) is 114 % of control; the T/C (endpoint: median survival time, dose: 1.5 mg/kg/injection, schedule: Q01DX009 (ip), vehicle: saline, higher = longer survival) is 103 % of control; the T/C (endpoint: median survival time, dose: 3.0 mg/kg/injection, schedule: Q01DX009 (ip), vehicle: saline, higher = longer survival) is 98 % of control.
Regarding `COc1ccc(CCN2C(=O)CSC2=S)cc1OC`, the T/C was 120 % of control (endpoint: median survival time, dose: 25.0 mg/kg/injection, schedule: Q01DX009 (ip), vehicle: Klucel (hydroxypropylcellulose) (HPC), higher = longer survival); 123 % of control under setting [3]; 116 % of control under setting [4].
Take `Nc1ccc(N=Nc2ccccc2)c(N)c1`: the T/C is, setting by setting: under setting [3], 91 % of control; under setting [4], 106 % of control.
As for `CCN(CC)CCNc1ccc(CO)c2sc3ccccc3c(=O)c12`, the T/C reads like this: (endpoint: median survival time, dose: 34.0 mg/kg/injection, schedule: Q01DX005 (ip), vehicle: water, higher = longer survival) 105 % of control; (endpoint: median tumor weight (est.), dose: 34.0 mg/kg/injection, schedule: Q01DX005 (ip), vehicle: water, higher = larger tumour) 55 % of control; (endpoint: median tumor weight (est.), dose: 50.0 mg/kg/injection, schedule: Q01DX005 (ip), vehicle: water, higher = larger tumour) 72 % of control; (endpoint: median tumor weight (est.), dose: 75.0 mg/kg/injection, schedule: Q01DX005 (ip), vehicle: water, higher = larger tumour) 28 % of control.
As for `CS(C)=O`, the T/C reads like this: (endpoint: median survival time, dose: 1.5 grams/kg/injection, schedule: Q01DX009 (ip), vehicle: saline, higher = longer survival) 105 % of control; (endpoint: median survival time, dose: 3.0 grams/kg/injection, schedule: Q01DX009 (ip), vehicle: saline, higher = longer survival) 109 % of control and 111 % of control; (endpoint: median survival time, dose: 6.0 grams/kg/injection, schedule: Q01DX009 (ip), vehicle: saline, higher = longer survival) 96 % of control and 108 % of control.
In the case of `NC(C/[N+]([O-])=N/O)C(=O)O` (stereo not given), the T/C (endpoint: median survival time, dose: 8.75 mg/kg/injection, schedule: Q01DX010 (ip), vehicle: alkali diluted with saline, higher = longer survival) is 96 % of control; the T/C (endpoint: median survival time, dose: 8.78 mg/kg/injection, schedule: Q01DX010 (ip), vehicle: alkali diluted with saline, higher = longer survival) is 100 % of control; the T/C (endpoint: median survival time, dose: 13.2 mg/kg/injection, schedule: Q01DX010 (ip), vehicle: alkali diluted with saline, higher = longer survival) was 152 % of control and 154 % of control; the T/C (endpoint: median survival time, dose: 29.6 mg/kg/injection, schedule: Q01DX010 (ip), vehicle: alkali diluted with saline, higher = longer survival) was 93 % of control and 96 % of control; the T/C (endpoint: median survival time, dose: 40.0 mg/kg/injection, schedule: Q01DX009 (ip), vehicle: Klucel (hydroxypropylcellulose) (HPC), higher = longer survival) is 103 % of control; the T/C (endpoint: median survival time, dose: 44.4 mg/kg/injection, schedule: Q01DX010 (ip), vehicle: alkali diluted with saline, higher = longer survival) is 104 % of control. For the same compound, the T/C is, setting by setting: (endpoint: median survival time, dose: 66.7 mg/kg/injection, schedule: Q01DX010 (ip), vehicle: alkali diluted with saline, higher = longer survival) 122 % of control; (endpoint: median survival time, dose: 300.0 mg/kg/injection, schedule: Q01DX001 (ip), vehicle: Klucel (hydroxypropylcellulose) (HPC), higher = longer survival) 87 % of control; (endpoint: median survival time, dose: 300.0 mg/kg/injection, schedule: Q04DX003 (ip), vehicle: Klucel (hydroxypropylcellulose) (HPC), higher = longer survival) 93 % of control; (endpoint: median survival time, dose: 500.0 mg/kg/injection, schedule: Q01DX001 (ip), vehicle: Klucel (hydroxypropylcellulose) (HPC), higher = longer survival) 97 % of control.
As for `O=[N+]([O-])O.[Ga]`, the T/C by setting is: under setting [1], 109 % of control; (endpoint: median survival time, dose: 16.0 mg/kg/injection, schedule: Q01DX009 (ip), vehicle: saline, higher = longer survival) 91 % of control; (endpoint: median survival time, dose: 32.0 mg/kg/injection, schedule: Q01DX009 (ip), vehicle: saline, higher = longer survival) 86 % of control; under setting [2], 99 % of control; (endpoint: median survival time, dose: 64.0 mg/kg/injection, schedule: Q01DX009 (ip), vehicle: saline, higher = longer survival) 95 % of control; (endpoint: median survival time, dose: 90.0 mg/kg/injection, schedule: Q01DX009 (ip), vehicle: saline, higher = longer survival) 104 % of control. Further, the T/C is 99 % of control (endpoint: median survival time, dose: 200.0 mg/kg/injection, schedule: Q04DX003 (ip), vehicle: saline, higher = longer survival); 100 % of control (endpoint: median survival time, dose: 400.0 mg/kg/injection, schedule: Q01DX001 (ip), vehicle: saline, higher = longer survival); 100 % of control (endpoint: median survival time, dose: 600.0 mg/kg/injection, schedule: Q01DX001 (ip), vehicle: saline, higher = longer survival).
